Laboratory results published in article PMC6072853 (Frontiers in Pharmacology, 2018).
Read-outs that look alike come from different tables or passages of the source.

Experiments:
Type in all cases: cell-based, human
A2780 = test: MTT antiproliferative assay, A2780; details: for inhibition at 10 µM / inhibition at 30 µM: Homo sapiens, read-out: Growth inhibition (%) ± SEM; for inhibition at 10 µM / inhibition at 30 µM / Growth inhibition (%) ± SEM: 72 h
Source text: (§1) Gynecological cancer cell lines, including ovarian (A2780), cervical (HeLa), and breast cancer cell lines (MCF7, T47D, MDA-MB-231, and MDA-MB-361) were purchased from the European Collection of Authenticated Cell Cultures (ECACC, Salisbury, United Kingdom). Additional cervical cell lines (SiHa and C33A) and a non-cancerous immortalized, mammary gland epithelial cell line (hTERT-HME1) were purchased from LGC Standards GmbH (Wesel, Germany). Non-cancerous fibroblast cells (MRC-5) were also obtained from the ECACC. All cells were cultured in minimal essential medium supplemented with 10% fetal bovine serum, 1% non-essential amino acids, and 1% antibiotic-antimycotic mixture, in humidified air containing 5% CO2 at 37°C. Immortalized hTERT-HME1 cells were maintained in serum-free mammary epithelial cell growth medium (MEGM) supplemented with insulin, human epidermal growth factor (hEGF), hydrocortisone, bovine pituitary extract, and an antibiotic-antimycotic mixture. All the medium and supplements were purchased from Lonza Group Ltd. (Basel, Switzerland).
(§2) The antiproliferative properties of the compounds were assessed by an MTT assay ([Mosmann, 1983]). Cells were seeded onto 96-well microplates at a density of 10,000 cells/well (MDA-MB-361 and C33A) or 5,000 cells/well (all other cell lines). After an overnight incubation, fresh medium containing the test compounds (at a concentration of 10 or 30 μM) was added. After incubation for 72 h at 37°C in humidified air, [3-(4,5-dimethylthiazol-2-yl)-2,5-diphenyltetrazolium bromide] (MTT) solution (5 mg/mL) was added. Purple formazan crystals were formed by the living cells during a 4 h contact period, which were assayed by spectrophotometry after having been dissolved in 100 μL DMSO. Untreated cells served as control, and cisplatin (CIS) (Ebewe Pharma GmbH, Unterach, Austria) was used as a reference compound. […] Two independent measurements were performed with five parallel wells. To present preliminary data concerning tumor selectivity of the potent compounds, the procedure was repeated on MRC-5 fibroblast and hTERT-HME1 immortalized mammary gland epithelial cells under the same experimental conditions.

MDA-MB-361 = test: MTT antiproliferative assay, MDA-MB-361; details: for inhibition at 10 µM / inhibition at 30 µM: Homo sapiens, read-out: Growth inhibition (%) ± SEM; for inhibition at 10 µM / inhibition at 30 µM / Growth inhibition (%) ± SEM: 72 h
Source text: as §1, §2

SiHa = test: MTT antiproliferative assay, SiHa; details: 72 h; for inhibition at 10 µM / inhibition at 30 µM: Homo sapiens, read-out: Growth inhibition (%) ± SEM
Source text: as §1, §2

MCF-7 = test: MTT antiproliferative assay, MCF-7; details: 72 h; for inhibition at 10 µM / inhibition at 30 µM: Homo sapiens, MCF7, read-out: Growth inhibition (%) ± SEM
Source text: as §1, §2

HeLa = test: MTT antiproliferative assay, HeLa; details: 72 h; for inhibition at 10 µM / inhibition at 30 µM: read-out: Growth inhibition (%) ± SEM; for IC50: read-out: calculated IC50 value
Source text: as §1, §2

T47D = test: MTT antiproliferative assay, T47D; details: 72 h; for inhibition at 10 µM / inhibition at 30 µM: Homo sapiens, read-out: Growth inhibition (%) ± SEM
Source text: as §1, §2

MDA-MB-231 = test: MTT antiproliferative assay, MDA-MB-231; details: for inhibition at 10 µM / inhibition at 30 µM: Homo sapiens, read-out: Growth inhibition (%) ± SEM; for inhibition at 10 µM: MDA-MB-231, 10 μM
Source text: as §1, §2

C33A = test: MTT antiproliferative assay, C33A; details: 72 h; for inhibition at 10 µM / inhibition at 30 µM: Homo sapiens, C-33-A, read-out: Growth inhibition (%) ± SEM
Source text: as §1, §2

hTERT-HME1 = test: MTT assay, immortalized mammary gland epithelial cells hTERT-HME1; details: for Growth inhibition (%) ± SEM: 72 h
Source text: as §1, §2

MRC-5 = test: MTT assay, non-cancerous fibroblasts MRC-5
Source text: as §1, §2

[1] = read-out: calculated IC50 value

Question: C[C@]12CC[C@H]3[C@@H](CCC4=CC(=O)CC[C@@H]43)[C@@H]1CC[C@H]2OC(=O)c1cc([N+](=O)[O-])cc([N+](=O)[O-])c1 [Compound 7, 17α-19-nortestosterone-17-yl 3′,5′-dinitrobenzoate] was tested. Which inhibition at 10 µM (A2780; A2780, 10 μM) did it give?
Answer: The inhibition at 10 µM was 49.2 ± 0.9%.

Question: And the inhibition at 30 µM (A2780; A2780, 30 μM)?
Answer: Its inhibition at 30 µM is 58.1 ± 2%.

Question: And the inhibition at 10 µM (MDA-MB-361; MDA-MB-361, 10 μM)?
Answer: The inhibition at 10 µM was < 20%.

Question: What about the inhibition at 30 µM (MDA-MB-361; MDA-MB-361, 30 μM) of the same compound?
Answer: Its inhibition at 30 µM is 22 ± 1.6%.

Question: What about the inhibition at 10 µM (SiHa; 10 μM) of the same compound?
Answer: The inhibition at 10 µM was < 20%.

Question: What about the inhibition at 30 µM (SiHa; 30 μM) of the same compound?
Answer: Its inhibition at 30 µM is < 20%.

Question: And the inhibition at 10 µM (MCF-7; MCF-7, 10 μM)?
Answer: The inhibition at 10 µM was 25.9 ± 3.1%.

Question: What about the inhibition at 30 µM (MCF-7; MCF-7, 30 μM) of the same compound?
Answer: Its inhibition at 30 µM is 37.7 ± 3.4%.

Question: What about the inhibition at 10 µM (HeLa; Homo sapiens, 10 μM) of the same compound?
Answer: Its inhibition at 10 µM is 26.6 ± 1.8%.

Question: What about the inhibition at 30 µM (HeLa; Homo sapiens, 30 μM) of the same compound?
Answer: Its inhibition at 30 µM is 21.5 ± 1.9%.

Question: And the inhibition at 10 µM (T47D; 10 μM)?
Answer: The inhibition at 10 µM was < 20%.

Question: And the inhibition at 30 µM (T47D; 30 μM)?
Answer: The inhibition at 30 µM was < 20%.

Question: And the inhibition at 10 µM (MDA-MB-231; 72 h)?
Answer: Its inhibition at 10 µM is < 20%.

Question: And the inhibition at 30 µM (MDA-MB-231; MDA-MB-231, 30 μM, 72 h)?
Answer: The inhibition at 30 µM was < 20%.

Question: And the inhibition at 10 µM (C33A; 10 μM)?
Answer: Its inhibition at 10 µM is < 20%.

Question: And the inhibition at 30 µM (C33A; 30 μM)?
Answer: The inhibition at 30 µM was < 20%.

Question: For N.N.[Cl][Pt][Cl] [CIS, cisplatin, reference compound], which “Growth inhibition (%) ± SEM” value (A2780; A2780, 10 μM) is on record?
Answer: Its value is 83.6 ± 1.2%.

Question: What about the “Growth inhibition (%) ± SEM” value (A2780; A2780, 30 μM) of the same compound?
Answer: The value was 95.0 ± 0.3%.

Question: What about the IC50 (A2780; A2780, 72 h, read-out: calculated IC50 value) of the same compound?
Answer: Its IC50 is 1.3 µM.

Question: What about the “Growth inhibition (%) ± SEM” value (hTERT-HME1; hTERT-HME1, 10 μM) of the same compound?
Answer: Its value is 97.7 ± 0.3%.

Question: And the “Growth inhibition (%) ± SEM” value (hTERT-HME1; hTERT-HME1, 30 μM)?
Answer: Its value is 99.1 ± 0.3%.

Question: What about the IC50 (hTERT-HME1; hTERT-HME1, 72 h, read-out: calculated IC50 value) of the same compound?
Answer: The IC50 was 2.45 µM.

Question: What about the “Growth inhibition (%) ± SEM” value (MDA-MB-361; MDA-MB-361, 10 μM) of the same compound?
Answer: Its value is 67.5 ± 1.0%.

Question: What about the “Growth inhibition (%) ± SEM” value (MDA-MB-361; MDA-MB-361, 30 μM) of the same compound?
Answer: The value was 87.8 ± 1.1%.

Question: And the IC50 (MDA-MB-361; MDA-MB-361, 72 h, read-out: calculated IC50 value)?
Answer: Its IC50 is 3.74 µM.

Question: What about the “Growth inhibition (%) ± SEM” value (SiHa; 10 μM) of the same compound?
Answer: The value was 88.6 ± 0.5%.

Question: What about the “Growth inhibition (%) ± SEM” value (SiHa; 30 μM) of the same compound?
Answer: The value was 90.2 ± 1.8%.

Question: And the IC50 (SiHa; [1])?
Answer: Its IC50 is 7.84 µM.

Question: What about the “Growth inhibition (%) ± SEM” value (MCF-7; MCF-7, 10 μM) of the same compound?
Answer: Its value is 66.9 ± 1.8%.

Question: What about the “Growth inhibition (%) ± SEM” value (MCF-7; MCF-7, 30 μM) of the same compound?
Answer: Its value is 96.8 ± 0.4%.

Question: What about the “Growth inhibition (%) ± SEM” value (MRC-5; MRC-5, 10 μM, 72 h) of the same compound?
Answer: The value was 60.3 ± 3.3%.

Question: And the “Growth inhibition (%) ± SEM” value (MRC-5; MRC-5, 30 μM, 72 h)?
Answer: Its value is 61.9 ± 1.0%.

Question: What about the IC50 (MRC-5; MRC-5, 72 h, read-out: calculated IC50 value) of the same compound?
Answer: Its IC50 is 6.19 µM.

Question: And the “Growth inhibition (%) ± SEM” value (HeLa; 10 μM)?
Answer: The value was 42.6 ± 2.3%.

Question: What about the “Growth inhibition (%) ± SEM” value (HeLa; 30 μM) of the same compound?
Answer: The value was 99.9 ± 0.3%.

Question: What about the IC50 (HeLa) of the same compound?
Answer: The IC50 was 12.4 µM.

Question: And the “Growth inhibition (%) ± SEM” value (T47D; 10 μM)?
Answer: Its value is 51.0 ± 2.0%.

Question: And the “Growth inhibition (%) ± SEM” value (T47D; 30 μM)?
Answer: Its value is 55.0 ± 1.5%.

Question: What about the IC50 (T47D; [1]) of the same compound?
Answer: The IC50 was 9.78 µM.

Question: And the “Growth inhibition (%) ± SEM” value (MDA-MB-231; MDA-MB-231, 30 μM, 72 h)?
Answer: The value was 71.5 ± 1.2%.

Question: What about the IC50 (MDA-MB-231; MDA-MB-231, 72 h, read-out: calculated IC50 value) of the same compound?
Answer: Its IC50 is 19.1 µM.

Question: And the “Growth inhibition (%) ± SEM” value (C33A; 10 μM)?
Answer: The value was 83.8 ± 0.8%.

Question: What about the “Growth inhibition (%) ± SEM” value (C33A; 30 μM) of the same compound?
Answer: Its value is 93.9 ± 0.6%.

Question: What about the IC50 (C33A; [1]) of the same compound?
Answer: The IC50 was 1.77 µM.

Question: What does the source list for C[C@]12CC[C@H]3[C@@H](CCC4=CC(=O)CC[C@@H]43)[C@@H]1CC[C@H]2Br [Compound 4, 17α-bromo-19-nortestosterone]?
Answer: inhibition at 10 µM (A2780; A2780, 10 μM): < 20%; inhibition at 30 µM (A2780; A2780, 30 μM): 54.4 ± 1.6%; inhibition at 10 µM (MDA-MB-361; MDA-MB-361, 10 μM): < 20%; inhibition at 30 µM (MDA-MB-361; MDA-MB-361, 30 μM): < 20%; inhibition at 10 µM (SiHa; 10 μM): < 20%; inhibition at 30 µM (SiHa; 30 μM): < 20%; inhibition at 10 µM (MCF-7; MCF-7, 10 μM): < 20%; inhibition at 30 µM (MCF-7; MCF-7, 30 μM): < 20%; inhibition at 10 µM (MRC-5; Homo sapiens, MRC5, MRC-5, 10 μM, 72 h, read-out: Growth inhibition (%) ± SEM): 11.9 ± 2.3%; inhibition at 30 µM (MRC-5; Homo sapiens, MRC5, MRC-5, 30 μM, 72 h, read-out: Growth inhibition (%) ± SEM): 20.4 ± 2.1%; inhibition at 10 µM (HeLa; Homo sapiens, 10 μM): 94.4 ± 0.7%; inhibition at 30 µM (HeLa; Homo sapiens, 30 μM): 94.1 ± 0.5%; IC50 (HeLa; Homo sapiens): 1.69 µM; inhibition at 10 µM (T47D; 10 μM): < 20%; inhibition at 30 µM (T47D; 30 μM): < 20%; inhibition at 10 µM (MDA-MB-231; 72 h): < 20%; inhibition at 30 µM (MDA-MB-231; MDA-MB-231, 30 μM, 72 h): < 20%; inhibition at 10 µM (C33A; 10 μM): < 20%; inhibition at 30 µM (C33A; 30 μM): < 20%
